Source: patent publication US11992297B2, “Monitoring method of heart rate for toxicity test using high-speed digital holography” (KOREA RESEARCH INSTITUTE OF STANDARDS AND SCIENCE, priority 2020, dated 2024)
Like-named read-outs stand apart in the source and are kept apart here.

Tests used:
[1] = system: water flea; details: for change of heart rate (final RHR) relative to the original heart rate (OHR) / decrease of heart rate (final RHR) relative to the original heart rate (OHR): FIG. 7 (C); for decrease of heart rate (final RHR) relative to the original heart rate (OHR): normalized for initial RHR; for relaxation heart rate (RHR) 0 hr / relaxation heart rate (RHR) 24 hr: average ± SD; for RHR normalization relative to 0 hr: 24 hr relative to 0 hr; for heart rate decrease after 24 hours (normalized average RHR): FIG. 8 (B),(C)
Experimental: In the individual response evaluation apparatus, an extra-axial digital holography method was used to take a hologram of the water flea with a CCD camera.
The heart rate of the water flea was analyzed by the reconstructed time-resolved phase distributions, from the heart rate signal obtained by the method.
A Fourier spectrum method was used for evaluating periodic characteristics in heart rate analysis. In (C) of FIG. 5, a one-dimensional Fourier spectrum method was used for each pixel of 1000 frame sets to calculate a two-dimensional frequency distribution of the water flea.
2 hours after the observation, 19 mL of hydrogen peroxide having concentrations of 0.00 mM, 0.03 mM, and 0.06 mM, respectively was each mixed for each experiment to perform the experiment repeatedly so that the water flea is exposed to the hydrogen peroxide. At this time, in a negative control group of 0.00 mM treatment, 10 mL of an M4 medium was further mixed for unifying volume.
Upon observation, the heart rate analysis was performed by dividing the section into those before and after exposure to hydrogen peroxide.
In order to express the heart rate trend of (B) of FIG. 7, in (A) of FIG. 7, an original heart rate (OHR) was flattened every 30 minutes by a moving average method.

[2] = system: water flea; details: 0.06 mM-treated test group versus 0.03 mM-treated group; FIG. 8 (d)
[3] = 0.03 mM hydrogen peroxide, Group (N=3)
[4] = 0.03 mM hydrogen peroxide, specimen #4
[5] = 0.03 mM hydrogen peroxide, specimen #5
[6] = 0.03 mM hydrogen peroxide, specimen #6
[7] = 0.06 mM hydrogen peroxide, Group (N=3)
[8] = 0.06 mM hydrogen peroxide, specimen #7
[9] = 0.06 mM hydrogen peroxide, specimen #8
[10] = 0.06 mM hydrogen peroxide, specimen #9

SMILES: OO [hydrogen peroxide]
- change of heart rate (final RHR) relative to the original heart rate (OHR) ([1]; 0.03 mM hydrogen peroxide): −13 BPM
- decrease of heart rate (final RHR) relative to the original heart rate (OHR) ([1]; 0.03 mM hydrogen peroxide): 3.3%
- relaxation heart rate (RHR) 0 hr [1, 3]: 366.81 ± 20.43 BPM
- RHR normalization relative to 0 hr [1, 3]: 92.84 ± 5.60%
- relaxation heart rate (RHR) 24 hr [1, 3]: 340.33 ± 21.98 BPM
- relaxation heart rate (RHR) 0 hr [1, 4]: 363.22 ± 12.11 BPM
- RHR normalization relative to 0 hr [1, 4]: 90.42 ± 4.74%
- relaxation heart rate (RHR) 24 hr [1, 4]: 328.43 ± 18.01 BPM
- relaxation heart rate (RHR) 0 hr [1, 5]: 350.78 ± 20.23 BPM
- RHR normalization relative to 0 hr [1, 5]: 96.72 ± 1.78%
- relaxation heart rate (RHR) 24 hr [1, 5]: 339.28 ± 6.54 BPM
- relaxation heart rate (RHR) 0 hr [1, 6]: 486.43 ± 6.63 BPM
- RHR normalization relative to 0 hr [1, 6]: 91.42 ± 6.94%
- relaxation heart rate (RHR) 24 hr [1, 6]: 353.28 ± 27.98 BPM
- heart rate decrease after 24 hours (normalized average RHR) ([1]; 0.03 mM-treated test group): 7.16%
- change of heart rate (final RHR) relative to the original heart rate (OHR) ([1]; 0.06 mM hydrogen peroxide): −109 BPM
- decrease of heart rate (final RHR) relative to the original heart rate (OHR) ([1]; 0.06 mM hydrogen peroxide): 22.7%
- relaxation heart rate (RHR) 0 hr [1, 7]: 383.81 ± 12.99 BPM
- RHR normalization relative to 0 hr [1, 7]: 73.96 ± 5.61%
- relaxation heart rate (RHR) 24 hr [1, 7]: 279.05 ± 12.71 BPM
- relaxation heart rate (RHR) 0 hr [1, 8]: 370.07 ± 25.38 BPM
- RHR normalization relative to 0 hr [1, 8]: 74.26 ± 4.33%
- relaxation heart rate (RHR) 24 hr [1, 8]: 274.82 ± 16.01 BPM
- relaxation heart rate (RHR) 0 hr [1, 9]: 378.43 ± 15.41 BPM
- RHR normalization relative to 0 hr [1, 9]: 79.13 ± 3.88%
- relaxation heart rate (RHR) 24 hr [1, 9]: 299.47 ± 14.70 BPM
- relaxation heart rate (RHR) 0 hr [1, 10]: 383.90 ± 13.02 BPM
- RHR normalization relative to 0 hr [1, 10]: 68.47 ± 1.93%
- relaxation heart rate (RHR) 24 hr [1, 10]: 262.87 ± 7.41 BPM
- heart rate decrease after 24 hours (normalized average RHR) ([1]; 0.06 mM-treated test group): 25.97%
- reactive oxygen species (ROS) level, times higher than the 0.03 mM-treated group [2]: 7.8 times
